System: differentiated 3T3-L1 (WT) cells
Assay: Glucose uptake (Glucose Uptake-Glo) in WT adipocytes
Assay type: cell-based, murine
Conditions: RO-3306 (10 μM) co-treated with AZD3965 (1 μM)
Description: Glucose Uptake: 3T3-L1 cells were seeded and differentiated in clear bottom 96-well plates (Corning®). After differentiation, cells were treated with or without […] AZD3965 for 24 hr, 48 hr or 72 hr as illustrated in FIG. 7 (schematic outline of experimental procedure). The cells were incubated in serum free media the night before performing the assay. The following day/morning, media was changed to serum and glucose free media for 2 hr prior to the experiment. Cells were then stimulated with 175 nM Insulin or vehicle (PBS) for 30 minutes. Glucose Uptake was measured using the Glucose Uptake-Glo™ Assay (Promega®) according to the manufacturer's protocol. The data generated were normalized by dividing the relative luminescence units (RLU) measured in insulin stimulated wells by vehicle treated controls. The aforementioned experiment was repeated in the presence of the CDK1 inhibitor, RO-3306 (10 μM), where indicated (FIG. 5C).

## O=C1NC(=NCc2cccs2)S/C1=C\c1ccc2ncccc2c1 [RO-3306]
  insulin-stimulated glucose uptake under co-treatment: the effects of AZD3965 were attenuated

From patent publication US12491187B2, “Use of MCT1 inhibitors to enhance insulin sensitivity” (H. LEE MOFFIT CANCER CENTER AND RESEARCH INSTITUTE, INC., priority 2022, dated 2025)
